These results are taken from publication PMC4894402, “Characterization of the honeybee AmNaV1 channel and tools to assess the toxicity of insecticides” (Scientific Reports, 2015).

SMILES strings stand for the structures.

For the assay, the target named is T1, AmNaV1 (Apis mellifera NaV1 voltage-gated sodium channel) (Apis mellifera, UniProt C9D7C5).
T1 construct: gene PARA; AmNaV1 channel expressed in Xenopus oocytes; with TipE regulatory subunit (honeybee)
The assay can be described thus: two-microelectrode voltage-clamp in Xenopus oocytes, tail current dose-response. It counts as cell-based.

T1 sequence (C9D7C5 1-2044): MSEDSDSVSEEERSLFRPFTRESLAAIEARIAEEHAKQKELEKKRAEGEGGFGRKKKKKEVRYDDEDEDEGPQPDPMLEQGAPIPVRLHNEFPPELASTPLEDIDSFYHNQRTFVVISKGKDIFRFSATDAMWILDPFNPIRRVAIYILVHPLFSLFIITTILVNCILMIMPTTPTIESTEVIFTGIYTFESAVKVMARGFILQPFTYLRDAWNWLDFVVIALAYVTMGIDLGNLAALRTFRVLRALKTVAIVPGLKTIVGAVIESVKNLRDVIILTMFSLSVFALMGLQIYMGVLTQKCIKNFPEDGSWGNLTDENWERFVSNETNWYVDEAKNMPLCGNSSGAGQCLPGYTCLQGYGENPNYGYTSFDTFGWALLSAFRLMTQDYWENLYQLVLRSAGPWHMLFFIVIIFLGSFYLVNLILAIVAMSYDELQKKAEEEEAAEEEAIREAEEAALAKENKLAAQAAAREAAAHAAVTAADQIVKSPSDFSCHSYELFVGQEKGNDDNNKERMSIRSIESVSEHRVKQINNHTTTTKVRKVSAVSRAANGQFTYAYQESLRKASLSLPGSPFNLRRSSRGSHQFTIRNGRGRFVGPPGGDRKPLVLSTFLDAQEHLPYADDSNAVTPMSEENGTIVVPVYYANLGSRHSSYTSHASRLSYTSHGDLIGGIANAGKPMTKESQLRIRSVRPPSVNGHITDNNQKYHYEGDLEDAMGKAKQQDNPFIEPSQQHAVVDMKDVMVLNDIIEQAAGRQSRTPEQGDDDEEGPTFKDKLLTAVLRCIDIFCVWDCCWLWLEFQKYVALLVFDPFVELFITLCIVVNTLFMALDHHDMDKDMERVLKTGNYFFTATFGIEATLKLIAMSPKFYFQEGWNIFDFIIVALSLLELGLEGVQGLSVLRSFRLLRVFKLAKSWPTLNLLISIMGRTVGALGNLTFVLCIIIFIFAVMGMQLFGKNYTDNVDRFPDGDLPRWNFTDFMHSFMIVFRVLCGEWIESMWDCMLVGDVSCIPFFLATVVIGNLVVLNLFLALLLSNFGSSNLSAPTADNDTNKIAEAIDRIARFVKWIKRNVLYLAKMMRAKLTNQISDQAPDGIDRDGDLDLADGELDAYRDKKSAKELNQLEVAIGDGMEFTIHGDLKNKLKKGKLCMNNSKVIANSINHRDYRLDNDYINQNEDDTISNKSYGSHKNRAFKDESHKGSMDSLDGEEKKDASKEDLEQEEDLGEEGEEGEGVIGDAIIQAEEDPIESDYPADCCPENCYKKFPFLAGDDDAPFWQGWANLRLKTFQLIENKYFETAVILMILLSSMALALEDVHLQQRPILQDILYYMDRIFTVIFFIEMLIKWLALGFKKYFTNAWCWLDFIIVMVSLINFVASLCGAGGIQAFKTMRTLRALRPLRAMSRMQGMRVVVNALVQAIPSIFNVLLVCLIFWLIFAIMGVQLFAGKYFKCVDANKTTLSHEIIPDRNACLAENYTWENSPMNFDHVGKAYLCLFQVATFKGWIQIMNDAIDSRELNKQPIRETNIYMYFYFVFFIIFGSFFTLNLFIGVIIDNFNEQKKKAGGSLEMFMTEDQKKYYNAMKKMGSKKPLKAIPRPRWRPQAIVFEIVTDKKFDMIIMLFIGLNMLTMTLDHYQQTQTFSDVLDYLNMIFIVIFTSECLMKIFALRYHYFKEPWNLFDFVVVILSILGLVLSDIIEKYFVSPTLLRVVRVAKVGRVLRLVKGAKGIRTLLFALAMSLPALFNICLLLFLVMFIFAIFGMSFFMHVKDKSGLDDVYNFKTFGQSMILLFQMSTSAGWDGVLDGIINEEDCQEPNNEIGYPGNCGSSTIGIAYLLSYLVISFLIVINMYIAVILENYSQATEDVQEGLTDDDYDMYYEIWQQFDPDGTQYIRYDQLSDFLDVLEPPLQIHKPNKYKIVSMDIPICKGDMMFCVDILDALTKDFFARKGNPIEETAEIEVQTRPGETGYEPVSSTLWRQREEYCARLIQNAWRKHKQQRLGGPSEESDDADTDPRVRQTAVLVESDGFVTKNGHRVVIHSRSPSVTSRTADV
T1 sequence (A0A120HXK1 1-238 partner): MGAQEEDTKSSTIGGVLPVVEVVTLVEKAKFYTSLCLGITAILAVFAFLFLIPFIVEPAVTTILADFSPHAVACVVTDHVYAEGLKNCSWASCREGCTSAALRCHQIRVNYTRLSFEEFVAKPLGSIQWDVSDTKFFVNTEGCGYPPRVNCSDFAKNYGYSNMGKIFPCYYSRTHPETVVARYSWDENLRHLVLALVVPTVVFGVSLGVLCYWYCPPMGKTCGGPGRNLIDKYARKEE

Broadly, the EC50 is the concentration that produces a half-maximal response. Lower therefore signals a more potent agent. For the compound `CC(C)C(C(=O)OC(C#N)c1cccc(Oc2ccccc2)c1)c1ccc(Cl)cc1` (stereo not shown) [fenvalerate], the half-maximal effective concentration (EC50) is 290 nM. This counts as sub-micromolar.
